{"source": "patent US6740666B2", "about": "“Substituted 8-arylquinoline phosphodiesterase-4 inhibitors” (Merck & Co., Inc., priority 2000, dated 2004)", "experiment": "Formation of metabolite in vivo after administration", "details": "Example 19 (a PDE4 inhibitor) formed when Example 14 is administered to a mammal", "protocol": "For example, Example 19, (5-{(E)-2-(3-{6-[1-methyl-1-(methylsulfonyl)ethyl]-8-quinolinyl}phenyl)-1-[4-(methylsulfonyl)phenyl]ethenyl}-1,2,4-oxadiazol-3-yl)methanol: [drawing 2]\nis administered. Accordingly, the present invention includes prodrugs that form PDE4 inhibitors in vivo as a metabolite after administering such prodrugs to a mammal. Further, this invention includes a method of treatment by a step of administering a prodrug to form in vivo an effective amount of a PDE4 inhibitor described by Formula I.", "data": [{"compound": "Cc1noc(/C(=C/c2cccc(-c3cc(C(C)(C)S(C)(=O)=O)cc4cccnc34)c2)c2ccc(S(C)(=O)=O)cc2)n1", "note": "[Example 14, 6-[1-methyl-1-(methylsulfonyl)ethyl]-8-[3-[(E)-2-[3-methyl-1,2,4-oxadiazol-5-yl]-2-[4-(methylsulfonyl)phenyl]ethenyl]phenyl]quinoline]", "values": [{"measurement": "metabolite formed in vivo", "result": "formed in vivo as a metabolite"}]}]}
